Read-outs that look alike come from different tables or passages of the source.
How the values were obtained:
[1] = Stilbenoid levels in batch culture of solvent-adapted PALCPR, dodecane/octylacetate two-phase vs control (HPLC); set-up: species or system S. cerevisiae; conditions: for Upper phase (0.3 L) % total: 200 ml dodecane + 100 ml octylacetate on 1 L medium; for Lower phase (1 L) % total: aqueous medium phase, dodecane/octylacetate
Procedure: (§1) A Phenomenex (Torrance, Calif., USA) Luna 3 micrometer C18 (100×2.00 mm) column was used at 60° C. As mobile phase a gradient of acetonitrile and milliq water (both containing 50 ppm trifluoroacetic acid) was used at a flow of 0.4 ml/min. The gradient profile was linear from 15% acetonitrile to 100% acetonitrile over 20 min.

[2] = Stilbenoid levels in two-phase batch culture of evolved PALCPR (PALCPR-evolved-I) with octylacetate (HPLC); set-up: species or system S. cerevisiae; conditions: for Upper phase (0.1 L) % total: 100 ml octylacetate on 1 L medium; for Lower phase (1 L) % total: aqueous phase, octylacetate
Procedure: as §1
(§2) For that, cells of the culture described in the previous example were harvested during mid-exponential-phase and stored at −80° C. in 15% glycerol and subsequently a fermentor, containing the same medium as described in the previous example with 10 g/l glucose and 100 g/l galactose, was then inoculated with cells of said PALCPR-solvent culture. The cells were allowed to fully consume the glucose at a stirring speed of 1000 rpm with an average dissolved oxygen content of above 70% of saturated air. At the onset of galactose consumption, the stirring rate was turned down to 300 rpm, after which slowly 100 ml of octylacetate was added.
(§3) For the determination of stilbenoids, an aliquot of 25 ml of cell broth was collected, and phase separation was initiated by centrifugation at 3500 g for 5 minutes. Both the upper octylacetate phase and the lower aquous medium phase were collected separately with a pipet and directly analyzed for their content of stilbenoids and intermediates by HPLC.

[3] = Stilbenoid levels in two-phase batch culture of PALCPR-evolved-II with octylacetate (HPLC); set-up: species or system S. cerevisiae; conditions: for Upper phase (0.1 L) % total: 100 ml octylacetate from start; for Lower phase (1 L) % total: aqueous phase, octylacetate
Procedure: as §1
However, the medium now only contained 100 g/l galactose and did contain 100 ml of octylacetate from the beginning of the fermentation. In addition, the stirrer speed was instantly set at 800 rpm. […] The strain is referred to as PALCPR-evolved-II.
as §3

[4] = Stilbenoid levels in two-phase batch culture of PALCPR-evolved-III with octylacetate (HPLC); set-up: species or system S. cerevisiae; conditions: for Upper phase (0.1 L) % total: 100 ml octylacetate from start; for Lower phase (1 L) % total: aqueous phase, octylacetate
Procedure: as §1
The stirrer speed was instantly set at 800 rpm. […] The strain is referred to as PALCPR-evolved-III.
as §3

[5] = Stilbenoid levels in batch culture of non-evolved FS09229 with nonyl-acetate vs control (HPLC); set-up: species or system S. cerevisiae; conditions: FS09229-solvent; for Upper phase (0.1 L) % total: 100 ml nonyl-acetate; for Lower phase (1 L) % total: aqueous phase, nonyl-acetate
Procedure: as §1
The non-evolved FS09229 strain described in previous examples was grown in the presence of nonyl-acetate. […] The stirrer speed was instantly set at 800 rpm. […] The cultivation will be referred to as FS09229-solvent. […] The cultivation will be referred to as FS09229-control.
as §3, with “nonylacetate” for “octylacetate”, “aqueous” for “aquous”, “pipette” for “pipet”

[6] = system: Escherichia coli strain FS06112; test: Glycerol consumption of FS06112 shakeflask cultures in the presence of extraction solvent; type: cell-based
Procedure: (§4) A glycerol stock of strain FS06112 was used to inoculate 500 ml baffled shake flasks that contained 100 ml modified M9 medium consisting of 4.5 g/l glycerol, 1.5 g/l yeast extract, 3 g/l K2HPO4, 6.8 g/l Na2HPO4, 0.5 g/l NaCl, 1 g/l NH4C, 50 μg/ml ampicillin and 50 μg/ml kanamycin; the initial pH was set at 7.0. The shakeflasks were incubated at ambient temperature, and were mixed with a magnetic stirring bar at approximately 150 rpm. After 5 hours, isopropyl β-thiogalactopyranoside (IPTG) was added at a final concentration of 4 mM, as an inducer of the T7 promoter that was in front of each of the three genes TAL, 4CL and VST. After one hour an aliquot of 10 ml of the solvent octyl acetate was added to one shakeflask that is now referred to as FS06112-solvent; the shakeflask culture without solvent will be referred to as FS06112-control.
as §4, with “β-thiogalactopyranoside(IPTG)” for “β-thiogalactopyranoside (IPTG)”, “methyl decanoate” for “octyl acetate”
A glycerol stock of strain FS06112 was used to inoculate 500 ml baffled shake flasks that contained 100 ml modified M9 medium consisting of 4.5 g/l glycerol, 1.5 g/l yeast extract, 3 g/l K2HPO4, 6.8 g/l Na2HPO4, 0.5 g/l NaCl, 1 g/l NH4C, 50 μg/ml ampicillin and 50 μg/ml kanamycin; the initial pH was set at 7.0. […]

[7] = Stilbenoid levels in batch culture of PALCPR-evolved-III with nonyl-acetate vs control (HPLC); set-up: species or system S. cerevisiae; conditions: for Upper phase (0.1 L) % total: PALCPR-solvent (PALCPR-evolved-III), 100 ml nonyl-acetate
Procedure: as §1
The stirrer speed was instantly set at 800 rpm. […] The cultivation will be referred to as PALCPR-solvent. […] The cultivation will be referred to as PALCPR-control.
as §3, with “nonylacetate” for “octylacetate”, “aqueous” for “aquous”, “pipette” for “pipet”

[8] = partition coefficient between water and octanol; cited from earlier work
[9] = system: S. cerevisiae strain PALCPR; test: Growth of evolved PALCPR strains in the presence of extraction solvent (CO2 production); type: cell-based
Procedure: as §2, with “The cells of the PALCPR-solvent culture described in the previous example were taken as starting point because the presence of the solvent mixture would possibly have already evoked adaptation of cells to solvents. For” for “For”
Galactose consumption indeed commenced again. A small arrest in CO2 production again occurred after 20 hours which, however, recovered after 5 hours, after which the cells grew exponentially with concomitant production of CO2, consumption of galactose within less than 40 hours. Based upon the CO2 production the specific growth rate was estimated to be 0.062 1/h (FIG. 2). The final biomass concentration was 21.6 g/l.
In order to further improve said strain in terms of length of lag-phase and growth rate, a 25 ml aliquot of the exponentional growing PALCPR-evolved-I strain was used to inoculate a fermentor, containing a similar medium as described in the previous example. However, the medium now only contained 100 g/l galactose and did contain 100 ml of octylacetate from the beginning of the fermentation. In addition, the stirrer speed was instantly set at 800 rpm. Upon inoculation of the fermentor, consumption of galactose only commenced after approximately 40 hours, indicated by a slow increase in CO2 signal, a decrease in dissolved oxygen and addition of base. Indeed the cells continued to grow exponentially with concomitant production of CO2, and consumed the galactose within less than 90 hours. Based upon the CO2 production the specific growth rate was estimated to be 0.041 1/h (FIG. 3). The final biomass concentration was 21.5 g/l. The strain is referred to as PALCPR-evolved-II.
Therefore, to further improve said strain in terms of both length of lag-phase and growth rate, a 50 ml aliquot of the exponentional growing PALCPR-evolved-II strain was used to inoculate a fermentor, containing a similar medium as described in the previous example (thus containing 100 g/l galactose 100 ml of octylacetate from the beginning of the fermentation). The stirrer speed was instantly set at 800 rpm. Upon inoculation of the fermentor, consumption of galactose already commenced after less then 20 hours, indicated by a slow increase in CO2 signal, a decrease in dissolved oxygen and addition of base. Indeed the cells further grew exponentially with concomitant production of CO2, and now consumed the galactose within approximately 50 hours. Based upon the CO2 production the specific growth rate was estimated to be 0.091 1/h (FIG. 4). The final biomass concentration was 18.9 g/l. The strain is referred to as PALCPR-evolved-III.
The evolved PALCPR-evolved-III strain described in the previous example was grown in the presence of nonyl-acetate, a similar solvent as octylacetate with one additional carbon atom. A 1 ml aliquot of a glycerol stock that was made from an exponentional growing PALCPR-evolved-III strain was used to inoculate a fermentor, containing a similar medium as described in the previous example, containing only 100 g/l galactose and 100 ml of nonyl-acetate from the beginning of the fermentation. The stirrer speed was instantly set at 800 rpm. Upon inoculation of the fermentor, consumption of galactose only commenced after approximately 70 hours, indicated by a slow increase in CO2 signal, a decrease in dissolved oxygen and addition of base. […]

[10] = PALCPR-evolved-II, 100 ml solvent from start, 800 rpm
[11] = PALCPR-evolved-III, 100 ml solvent from start, 800 rpm, fresh inoculum

SMILES	Upper phase (0.3 L) % total [1]	Lower phase (1 L) % total [1]	Upper phase (0.1 L) % total [2]	Lower phase (1 L) % total [2]	Upper phase (0.1 L) % total [3]	Lower phase (1 L) % total [3]	Upper phase (0.1 L) % total [4]	Lower phase (1 L) % total [4]	Upper phase (0.1 L) % total [5]	Lower phase (1 L) % total [5]	logP [8]	other results
Oc1cc(O)cc(/C=C/c2ccccc2)c1 [Pinosylvin, pinosylvin]	95.2 % total	4.8 % total	100 % total	0; 0 % total	100 % total	0; 0 % total	90.3 % total	9.7 % total	100 % total	0.0; 0.0 % total		Upper phase (0.3 L) % total ([1]; listed as pinosylvin): 95 % total; Upper phase (0.1 L) % total ([4]; listed as pinosylvin): 100 % total
CCCCCCCCCC(C)=O [undecanone]												time in which the glycerol was consumed ([6]; FS06112-solvent, 10 ml solvent on 100 ml medium, control 30 hours): ≤ 48 h
O=C(O)C=Cc1ccccc1 [Cinnamic acid, cinnamic acid]	56.9 % total	43.1 % total	52.5 % total	47.5 % total	88.6 % total	11.4 % total	71.3 % total	28.7 % total	42.2 % total	57.8 % total		Upper phase (0.1 L) % total [7]: 29.6 % total; Upper phase (0.1 L) % total ([7]; listed as cinnamic acid): 25 % total; Lower phase (1 L) % total ([7]; PALCPR-solvent, aqueous phase, nonyl-acetate): 70.4 % total; Upper phase (0.1 L) % total ([5]; listed as cinnamic acid): 42 % total
CCCCCCCCCC(=O)OC [methyl decanoate]											4.3	time in which the glycerol was consumed [6]: ≤ 48 h
O=C(O)/C=C/c1ccc(O)cc1 [Coumaric acid, 4-coumaric acid]			18.0 % total	82.0 % total	59.3 % total	40.7 % total	40.0 % total	60.0 % total				
CCCCCCCCOC(C)=O [n-octyl acetate]											3.7	lag-phase until galactose consumption commenced [9, 10]: approximately 40 hours; specific growth rate [9, 10]: 0.041 h⁻¹; lag-phase until galactose consumption commenced [9, 11]: < 20 h; specific growth rate [9, 11]: 0.091 h⁻¹; time until cells started to grow after solvent addition (lag-phase) ([9]; cells from PALCPR-solvent culture (PALCPR-evolved-I), 100 ml solvent added to 1 L): approximately 170 hours; specific growth rate ([9]; cells from PALCPR-solvent culture (PALCPR-evolved-I), 100 ml solvent added to 1 L at onset of galactose consumption): 0.062 h⁻¹; time in which 2.5 g/l of glycerol was consumed [6]: ≤ 24 h
